Reference: patent publication EP2556062B1, “AMIDE DERIVATIVES OF AVENALUMIC ACID, PROCESS FOR PREPARING SAME AND COSMETIC COMPOSITIONS CONTAINING SAME” (Produits Chimiques Auxiliaires et de Synthese, priority 2010, dated 2011)

Experiments:
[1] = DPPH radical scavenging test (free-radical trapping); assay type: biochemical; conditions: DPPH 0,5mM, 37°C, 30 minutes, absorbance at 517 nm; for % inhibition (C=25µM): compound 25µM; for % inhibition (C=80µM): compound 80µM; for % inhibition (C=): compound
Protocol: Cette étude mesure l'activité antiradicalaire d'un composé par capture du radical DPPH. Ce test est largement utilisé pour étudier la capacité d'un composé à donner un hydrogène.
L'activité se traduit par une décoloration du DPPH (violet). L'absorbance (densité optique DO) a été mesurée à 517 nm au bout de trente minutes sur un spectrophotomètre UV-visible thermostaté à 37°C. Le résultat est exprimé en pourcentage d'inhibition déterminé par la formule : [formula]
Cette activité a été comparée à celle des produits de référence vitamine E, acide férulique et vinylogue de l'acide férulique [dérivé (17)].

[2] = Auto-oxidation by the ferric thiocyanate (FTC) method: AAPH-induced lipid peroxidation of linoleic acid; assay type: biochemical; conditions: 25 micromoles; absorbance at 500nm versus time over five hours; activity not superior to that of acide férulique
Text: Cette méthode met en évidence la capacité de capter le radical peroxyle par le dérivé à tester. La méthode est basée sur une peroxydation lipidique de l'acide linoléique, émulsionné par le Tween 20®.
Cette peroxydation est réalisée par action d'un initiateur de radicaux libres, le dihydrochlorhydrate de 2,2'-azobis(2-amidino)propane (AAPH). Le radical peroxyle formé réagit avec le dérivé à tester et conduit à la formation d'un hydroperoxyde et d'un radical alkoxyle ArO˙. Ce dernier réagit avec le radical peroxyle et permet la formation de produits non radicalaires.
Par ailleurs, les radicaux peroxyle continuent d'oxyder le substrat (l'acide linoléique) pour former également un hydroperoxyde. Cet hydroperoxyde oxyde le fer ferreux présent in situ pour conduire à la formation de fer ferrique Fe^3+ qui se complexe à l'anion thiocyanate.
Le complexe rouge de thiocyanate ferrique formé absorbe à 500nm.
Le degré d'oxydation est quantifié par l'absorbance mesurée. L'activité antioxydante du dérivé à tester est donc la capacité à retarder la peroxydation lipidique. Plus la durée pour atteindre le maximum d'absorbance est longue, plus l'antioxydant est puissant.
Cette étude est réalisée sur une période de cinq heures avec un intervalle de temps d'une heure. Le résultat est exprimé par l'absorbance en fonction du temps. La concentration des molécules dans le milieu est de 25 micromoles.

Row | SMILES | % inhibition (C=25µM) [1] | % inhibition (C=80µM) [1] | % inhibition (C=) [1] | activité antioxydante [2]
1 | COc1cc(/C=C/C(=O)O)ccc1O [Acide férulique, reference compound] | 50% | 78% | 61% | –
2 | Cc1c(C)c2c(c(C)c1O)CC[C@@](C)(CCC[C@H](C)CCC[C@H](C)CCCC(C)C)O2 [Vit.E, vitamine E, reference compound] | 41% | 92% | 86% | –
3 | COC(=O)c1scc(C)c1NC(=O)/C=C/c1ccc(O)c(OC)c1 [compound 3, 3-{[(2E)-3-(4-hydroxy-3-méthoxyphényl)prop-2-ènoyl]amino}-4-méthylthiophène-2-carboxylatede méthyle] | 45% | 72% | 48% | ont une activité antioxydante
4 | COc1cc(/C=C/C(=O)Nc2c(C)csc2C(=O)O)ccc1O [compound 4, Acide 3-{[(2E)-3-(4-hydroxy-3-méthoxyphényl)prop-2-ènoyl]amino}-4-méthylthiophène-2-carboxylique] | 41% | 50% | 31% | ont une activité antioxydante
5 | COc1cc(/C=C/C=C/C(=O)O)ccc1O [compound 17, Acide (2E,4E)-5-[4-hydroxy-3-méthoxyphényl]penta-2,4-diénoique, reference compound] | 62% | 81% | 65% | –
6 | COC(=O)c1scc(C)c1NC(=O)/C=C/C=C/c1ccc(O)c(OC)c1 [compound 21, 3-{[(2E,4E)-5-(4-hydroxy-3-méthoxyphényl)penta-2,4-diènoyl]amino}-4-méthylthiophène-2-carboxylatede méthyle] | 68% | 93% | 74% | ont une activité antioxydante
7 | COc1cc(/C=C/C=C/C(=O)Nc2c(C)csc2C(=O)O)ccc1O [compound 22, Acide 3-{[(2E,4E)-5-(4-hydroxy-3-méthoxyphényl)penta-2,4-diènoyl]amino}-4-méthylthiophène-2-carboxylique] | 50% | 73% | 54% | ont une activité antioxydante
